Experimental data: patent publication US7569578B2, “Heterocyclic anti-migraine agents” (Bristol-Meyers Squibb Company, priority 2003, dated 2009)

Each compound was assayed against T1, Human CGRP1 Receptor (Homo sapiens, UniProt O60894+Q16602) (assay: CGRP Binding Assay ([125I]-CGRP radioligand displacement, SK-N-MC membrane homogenate)). Settings: [125I]-CGRP displacement, SK-N-MC homogenate, room temperature 2 h; read-out: Human CGRP1 Receptor IC50.
T1 construct: endogenous in cells; host or cells: SK-N-MC cells (membrane homogenate)
T1 sequence (Q16602 23-461): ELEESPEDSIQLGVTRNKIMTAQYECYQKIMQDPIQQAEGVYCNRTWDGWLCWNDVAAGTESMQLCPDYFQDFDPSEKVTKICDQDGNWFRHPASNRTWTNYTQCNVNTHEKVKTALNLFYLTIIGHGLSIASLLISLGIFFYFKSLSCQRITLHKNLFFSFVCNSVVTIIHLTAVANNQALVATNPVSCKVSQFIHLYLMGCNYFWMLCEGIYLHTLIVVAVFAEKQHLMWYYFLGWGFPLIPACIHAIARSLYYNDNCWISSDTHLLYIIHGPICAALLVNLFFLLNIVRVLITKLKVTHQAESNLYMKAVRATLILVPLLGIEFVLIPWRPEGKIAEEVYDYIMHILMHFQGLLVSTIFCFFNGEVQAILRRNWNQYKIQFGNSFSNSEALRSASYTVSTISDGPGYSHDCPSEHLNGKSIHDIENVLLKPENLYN
T1 sequence (O60894 27-148): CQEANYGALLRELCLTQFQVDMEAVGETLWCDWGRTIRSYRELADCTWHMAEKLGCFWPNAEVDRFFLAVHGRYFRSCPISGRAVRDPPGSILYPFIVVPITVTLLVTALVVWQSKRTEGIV

SMILES | IC50 [nM]
Cc1cc(Cn2ccnc2C(Cc2cc(C)c3[nH]ncc3c2)NC(=O)N2CCC(N3Cc4ccccc4NC3=O)CC2)cc(Cl)n1 (racemic) [Example 93, (±)-N-(1-(1-((2-Chloro-6-methylpyridin-4-yl)methyl)-1H-imidazol-2-yl)-2-(7-methyl-1H-indazol-5-yl)ethyl)-4-(2-oxo-1,2-dihydroquinazolin-3(4H)-yl)piperidine-1-carboxamide] | < 10
Cc1cc(Cn2ccnc2C(Cc2cc(C)c3[nH]ncc3c2)NC(=O)N2CCC(N3Cc4ccccc4NC3=O)CC2)ccn1 (racemic) [Example 94, (±)-N-(2-(7-Methyl-1H-indazol-5-yl)-1-(1-((2-methylpyridin-4-yl)methyl)-1H-imidazol-2-yl)ethyl)-4-(2-oxo-1,2-dihydroquinazolin-3(4H)-yl)piperidine-1-carboxamide] | < 10
Cc1cc(CC(NC(=O)N2CCC(c3cc4ccccc4[nH]c3=O)CC2)c2cc3ccccc3cn2)cc2cn[nH]c12 (stereo not drawn) [Example 36, N-(1-(Isoquinolin-3-yl)-2-(7-methyl-1H-indazol-5-yl)ethyl)-4-(2-oxo-1,2-dihydroquinolin-3-yl)piperidine-1-carboxamide] | < 10
Cc1cc(CC(NC(=O)N2CCC(N3Cc4ccccc4NC3=O)CC2)c2cc3ccccc3cn2)cc2cn[nH]c12 (stereo not drawn) [Example 50, N-(1-(isoquinolin-3-yl)-2-(7-methyl-1H-indazol-5-yl)ethyl)-4-(2-oxo-1,2-dihydroquinazolin-3(4H)-yl)piperidine-1-carboxamide] | < 10
Cc1cc(CC(NC(=O)N2CCC(N3Cc4cccc(F)c4NC3=O)CC2)c2cc3ccccc3cn2)cc2cn[nH]c12 (stereo not drawn) [Example 51, 4-(8-fluoro-2-oxo-1,2-dihydroquinazolin-3(4H)-yl)-N-(1-(isoquinolin-3-yl)-2-(7-methyl-1H-indazol-5-yl)ethyl)piperidine-1-carboxamide] | < 10
Cc1cc(CC(OC(=O)N2CCC(N3Cc4cccc(F)c4NC3=O)CC2)c2ccccn2)cc2cn[nH]c12 (stereo not drawn) [Example 55, 2-(7-methyl-1H-indazol-5-yl)-1-(pyridin-2-yl)ethyl 4-(8-fluoro-2-oxo-1,2-dihydroquinazolin-3(4H)-yl)piperidine-1-carboxylate] | < 10
Cc1cc(CC(OC(=O)N2CCC(N3Cc4cccc(F)c4NC3=O)CC2)c2cccnc2)cc2cn[nH]c12 (stereo not drawn) [Example 59, 2-(7-Methyl-1H-indazol-5-yl)-1-(pyridin-3-yl)ethyl 4-(8-fluoro-2-oxo-1,2-dihydroquinazolin-3(4H)-yl)piperidine-1-carboxylate] | 100 to 1000
Cc1cc(CC(OC(=O)N2CCC(N3Cc4cccc(F)c4NC3=O)CC2)c2ccco2)cc2cn[nH]c12 (stereo not drawn) [Example 60, 1-(Furan-2-yl)-2-(7-methyl-1H-indazol-5-yl)ethyl 4-(8-fluoro-2-oxo-1,2-dihydroquinazolin-3(4H)-yl)piperidine-1-carboxylate] | 10 to 100
Cc1cc(C)nc(C(Cc2cc(C)c3[nH]ncc3c2)OC(=O)N2CCC(c3cc4ccccc4[nH]c3=O)CC2)n1 (stereo not drawn) [Example 62, 1-(4,6-Dimethylpyrimidin-2-yl)-2-(7-methyl-1H-indazol-5-yl)ethyl 4-(2-oxo-1,2-dihydroquinolin-3-yl)piperidine-1-carboxylate] | 100 to 1000
Cc1cc(C)nc(C(Cc2cc(C)c3[nH]ncc3c2)OC(=O)N2CCC(N3Cc4cccc(F)c4NC3=O)CC2)n1 (stereo not drawn) [Example 63, 1-(4,6-Dimethylpyrimidin-2-yl)-2-(7-methyl-1H-indazol-5-yl)ethyl 4-(8-fluoro-2-oxo-1,2-dihydroquinazolin-3(4H)-yl)piperidine-1-carboxylate] | 100 to 1000
Cc1cc(C[C@@H](OC(=O)N2CCC(c3cc4ccccc4[nH]c3=O)CC2)c2nccn2Cc2cc(F)cc(F)c2)cc2cn[nH]c12 [Example 78, (R)-1-(1-(3,5-difluorobenzyl)-1H-imidazol-2-yl)-2-(7-methyl-1H-indazol-5-yl)ethyl 4-(2-oxo-1,2-dihydroquinolin-3-yl)piperidine-1-carboxylate] | < 10
Cc1cc(C[C@@H](NC(=O)N2CCC(N3Cc4ccccc4NC3=O)CC2)c2ncc3ccccn23)cc2cn[nH]c12 [Example 85, (R)-N-(1-(H-Imidazo[1,5-a]pyridin-3-yl)-2-(7-methyl-1H-indazol-5-yl)ethyl)-4-(2-oxo-1,2-dihydroquinazolin-3(4H)-yl)piperidine-1-carboxamide] | < 10
CC1=CC(CC(CC(=O)N2CCC(N3Cc4ccccc4NC3=O)CC2)c2nccn2Cc2ccc(C(C)(C)C)cc2)=CC2C=NNC12 (stereo not drawn) [Example 95, 3-(1-(3-(1-(4-tert-Butylbenzyl)-1H-imidazol-2-yl)-4-(7-methyl-3a,7a-dihydro-1H-indazol-5-yl)butanoyl)piperidin-4-yl)-3,4-dihydroquinazolin-2(1H)-one] | < 10

The next lines start with the values.

IC50 [nM] | SMILES
< 10 | Cc1cc(CC(OC(=O)N2CCC(N3Cc4cccc(F)c4NC3=O)CC2)c2cc3ccccc3cn2)cc2cn[nH]c12 (stereo not drawn) [Example 52, 1-(Isoquinolin-3-yl)-2-(7-methyl-1H-indazol-5-yl)ethyl 4-(8-fluoro-2-oxo-1,2-dihydroquinazolin-3(4H)-yl)piperidine-1-carboxylate]
< 10 | Cc1cc(CC(OC(=O)N2CCC(N3Cc4ccccc4NC3=O)CC2)c2cc3ccccc3cn2)cc2cn[nH]c12 (stereo not drawn) [Example 53, 1-(Isoquinolin-3-yl)-2-(7-methyl-1H-indazol-5-yl)ethyl 4-(2-oxo-1,2-dihydroquinazolin-3(4H)-yl)piperidine-1-carboxylate]
< 10 | Cc1cc(CC(OC(=O)N2CCC(N3Cc4ccccc4NC3=O)CC2)c2ccccn2)cc2cn[nH]c12 (stereo not drawn) [Example 54, 2-(7-methyl-1H-indazol-5-yl)-1-(pyridin-2-yl)ethyl 4-(2-oxo-1,2-dihydroquinazolin-3(4H)-yl)piperidine-1-carboxylate]
10 to 100 | Cc1cc(CC(OC(=O)N2CCC(N3Cc4ccccc4NC3=O)CC2)c2ccco2)cc2cn[nH]c12 (stereo not drawn) [Example 56, 1-(Furan-2-yl)-2-(7-methyl-1H-indazol-5-yl)ethyl 4-(2-oxo-1,2-dihydroquinazolin-3(4H)-yl)piperidine-1-carboxylate]
100 to 1000 | Cc1cc(CC(OC(=O)N2CCC(N3Cc4ccccc4NC3=O)CC2)c2ccncc2)cc2cn[nH]c12 (stereo not drawn) [Example 57, 2-(7-Methyl-1H-indazol-5-yl)-1-(pyridin-4-yl)ethyl 4-(2-oxo-1,2-dihydroquinazolin-3(4H)-yl)piperidine-1-carboxylate]
100 to 1000 | Cc1cc(CC(OC(=O)N2CCC(N3Cc4ccccc4NC3=O)CC2)c2cccnc2)cc2cn[nH]c12 (stereo not drawn) [Example 58, 2-(7-Methyl-1H-indazol-5-yl)-1-(pyridin-3-yl)ethyl 4-(2-oxo-1,2-dihydroquinazolin-3(4H)-yl)piperidine-1-carboxylate]
< 10 | Cc1cc(CC(OC(=O)N2CCC(N3Cc4ccccc4NC3=O)CC2)c2ccc3ccccc3n2)cc2cn[nH]c12 (stereo not drawn) [Example 61, 2-(7-Methyl-1H-indazol-5-yl)-1-(quinolin-2-yl)ethyl 4-(2-oxo-1,2-dihydroquinazolin-3(4H)-yl)piperidine-1-carboxylate]
10 to 100 | Cc1cc(CC(OC(=O)N2CCC(N3Cc4ccccc4NC3=O)CC2)c2cc3ccccc3o2)cc2cn[nH]c12 (stereo not drawn) [Example 64, 1-(Benzofuran-2-yl)-2-(7-methyl-1H-indazol-5-yl)ethyl 4-(2-oxo-1,2-dihydroquinazolin-3(4H)-yl)piperidine-1-carboxylate]
